The source made the active and inactive calls. The rule behind the calls is not given here.
Assays:
Tau-tubulin kinase 2 [1] = target: T1, Tau-tubulin kinase 2 (Homo sapiens, UniProt Q6IQ55); experiment: Inhibition of TTBK2 (unknown origin)
Tau-tubulin kinase 1 [2] = target: T2, Tau-tubulin kinase 1 (Homo sapiens, UniProt Q5TCY1)
[3] = Permeability of the compound at pH 7.4 PBS/EtOH buffer (70:30) by PAMPA-BBB assay
Tau-tubulin kinase 1 [4] = target: T2, Tau-tubulin kinase 1; conditions: dose 10.0 µM, time 30.0 min
SH-SY5Y [5] = experiment: Neuroprotective activity against okadaic acid-induced neurotoxicity in human SH-SY5Y cells assessed as reduction in Tau hyperphosphorylation by measuring cell viability at 1 to 5 uM incubated for 24 hrs by MTT assay; assay type: functional, cell-based; conditions: dose 1-5 µM
[6] = Selectivity index, ratio of IC50 for recombinant human TTBK1 to IC50 for recombinant human TTBK2
Tau-tubulin kinase 1 [7] = target: T2, Tau-tubulin kinase 1; remark: listed apart in the source
Tau-tubulin kinase 2 [8] = target: T1, Tau-tubulin kinase 2
Tau-tubulin kinase 2 [9] = target: T1, Tau-tubulin kinase 2; conditions: dose 10.0 µM, time 30.0 min
SH-SY5Y [10] = experiment: Neuroprotective activity against ethacrynic acid-induced neurotoxicity human SH-SY5Y cells assessed as increase in cell viability at 5 uM preincubated for 1 hr followed by ethacrynic acid addition and further incubated for 24 hrs by MTT assay; assay type: functional, cell-based; conditions: time 25.0 hrs
SH-SY5Y [11] = experiment: Neuroprotective activity against ethacrynic acid-induced neurotoxicity human SH-SY5Y cells assessed as decrease in TDP-43 phosphorylation at Ser409 at 5 uM preincubated for 1 hr followed by EA addition and further incubated for 24 hrs by Western blot analysis; assay type: functional, cell-based; conditions: time 25.0 hrs
Tau-tubulin kinase 1 [12] = target: T2, Tau-tubulin kinase 1; experiment: Inhibition of TTBK1 in sporadic ALS patient derived human lymphoblasts assessed as reduction in TDP-43 phosphorylation levels at 5 to 10 uM treated for 24 hrs by Western blot analysis; assay type: cell-based; conditions: Lymphoblastoid cell, dose 5-10 µM
Tau-tubulin kinase 1 [13] = target: T2, Tau-tubulin kinase 1; experiment: Inhibition of TTBK1 in sporadic ALS patient derived human lymphoblasts assessed as reduction in cytosolic TDP-43 levels at 5 to 10 uM treated for 24 hrs by Western blot analysis; assay type: cell-based; conditions: Lymphoblastoid cell, dose 5-10 µM
Tau-tubulin kinase 1 [14] = target: T2, Tau-tubulin kinase 1; experiment: Inhibition of TTBK1 in sporadic ALS patient derived human lymphoblasts assessed as recovery nuclear localization of TDP-43 levels at 5 to 10 uM treated for 24 hrs by Western blot analysis; assay type: cell-based; conditions: Lymphoblastoid cell, dose 5-10 µM

T2 sequence (Q5TCY1 whole entry): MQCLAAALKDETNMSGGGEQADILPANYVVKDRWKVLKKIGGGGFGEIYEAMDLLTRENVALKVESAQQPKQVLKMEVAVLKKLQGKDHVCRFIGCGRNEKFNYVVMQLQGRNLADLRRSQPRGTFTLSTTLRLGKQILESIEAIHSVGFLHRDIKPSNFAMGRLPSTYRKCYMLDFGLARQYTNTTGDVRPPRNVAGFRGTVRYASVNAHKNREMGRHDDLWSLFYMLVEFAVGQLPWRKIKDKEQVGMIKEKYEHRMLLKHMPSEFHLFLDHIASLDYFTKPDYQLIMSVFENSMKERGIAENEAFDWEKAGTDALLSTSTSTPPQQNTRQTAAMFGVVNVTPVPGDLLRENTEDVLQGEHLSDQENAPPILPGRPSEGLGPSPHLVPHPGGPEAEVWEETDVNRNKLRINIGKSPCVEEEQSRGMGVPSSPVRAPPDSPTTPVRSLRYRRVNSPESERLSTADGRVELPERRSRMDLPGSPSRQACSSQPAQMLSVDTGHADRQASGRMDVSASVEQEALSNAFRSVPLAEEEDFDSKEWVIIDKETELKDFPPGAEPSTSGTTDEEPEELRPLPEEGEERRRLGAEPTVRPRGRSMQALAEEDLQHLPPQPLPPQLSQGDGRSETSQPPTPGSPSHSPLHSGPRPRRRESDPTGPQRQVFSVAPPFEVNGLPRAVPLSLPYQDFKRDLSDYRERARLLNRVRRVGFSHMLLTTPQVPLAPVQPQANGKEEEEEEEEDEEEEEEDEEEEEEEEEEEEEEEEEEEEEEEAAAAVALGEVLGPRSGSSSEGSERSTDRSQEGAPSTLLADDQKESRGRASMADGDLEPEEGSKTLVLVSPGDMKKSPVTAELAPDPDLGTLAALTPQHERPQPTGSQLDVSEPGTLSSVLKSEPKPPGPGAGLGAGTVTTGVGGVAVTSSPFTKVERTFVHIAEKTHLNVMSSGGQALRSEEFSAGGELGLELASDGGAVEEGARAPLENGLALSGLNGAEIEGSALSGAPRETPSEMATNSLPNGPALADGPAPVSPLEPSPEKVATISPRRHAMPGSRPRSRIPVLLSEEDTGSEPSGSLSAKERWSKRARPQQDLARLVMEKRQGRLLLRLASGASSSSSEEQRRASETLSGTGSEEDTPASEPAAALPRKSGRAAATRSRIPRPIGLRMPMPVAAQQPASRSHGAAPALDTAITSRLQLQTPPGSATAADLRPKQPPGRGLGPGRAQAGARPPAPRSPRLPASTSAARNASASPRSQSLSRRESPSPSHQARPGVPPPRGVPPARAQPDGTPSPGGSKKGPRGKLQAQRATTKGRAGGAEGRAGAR
T1 sequence (Q6IQ55 whole entry): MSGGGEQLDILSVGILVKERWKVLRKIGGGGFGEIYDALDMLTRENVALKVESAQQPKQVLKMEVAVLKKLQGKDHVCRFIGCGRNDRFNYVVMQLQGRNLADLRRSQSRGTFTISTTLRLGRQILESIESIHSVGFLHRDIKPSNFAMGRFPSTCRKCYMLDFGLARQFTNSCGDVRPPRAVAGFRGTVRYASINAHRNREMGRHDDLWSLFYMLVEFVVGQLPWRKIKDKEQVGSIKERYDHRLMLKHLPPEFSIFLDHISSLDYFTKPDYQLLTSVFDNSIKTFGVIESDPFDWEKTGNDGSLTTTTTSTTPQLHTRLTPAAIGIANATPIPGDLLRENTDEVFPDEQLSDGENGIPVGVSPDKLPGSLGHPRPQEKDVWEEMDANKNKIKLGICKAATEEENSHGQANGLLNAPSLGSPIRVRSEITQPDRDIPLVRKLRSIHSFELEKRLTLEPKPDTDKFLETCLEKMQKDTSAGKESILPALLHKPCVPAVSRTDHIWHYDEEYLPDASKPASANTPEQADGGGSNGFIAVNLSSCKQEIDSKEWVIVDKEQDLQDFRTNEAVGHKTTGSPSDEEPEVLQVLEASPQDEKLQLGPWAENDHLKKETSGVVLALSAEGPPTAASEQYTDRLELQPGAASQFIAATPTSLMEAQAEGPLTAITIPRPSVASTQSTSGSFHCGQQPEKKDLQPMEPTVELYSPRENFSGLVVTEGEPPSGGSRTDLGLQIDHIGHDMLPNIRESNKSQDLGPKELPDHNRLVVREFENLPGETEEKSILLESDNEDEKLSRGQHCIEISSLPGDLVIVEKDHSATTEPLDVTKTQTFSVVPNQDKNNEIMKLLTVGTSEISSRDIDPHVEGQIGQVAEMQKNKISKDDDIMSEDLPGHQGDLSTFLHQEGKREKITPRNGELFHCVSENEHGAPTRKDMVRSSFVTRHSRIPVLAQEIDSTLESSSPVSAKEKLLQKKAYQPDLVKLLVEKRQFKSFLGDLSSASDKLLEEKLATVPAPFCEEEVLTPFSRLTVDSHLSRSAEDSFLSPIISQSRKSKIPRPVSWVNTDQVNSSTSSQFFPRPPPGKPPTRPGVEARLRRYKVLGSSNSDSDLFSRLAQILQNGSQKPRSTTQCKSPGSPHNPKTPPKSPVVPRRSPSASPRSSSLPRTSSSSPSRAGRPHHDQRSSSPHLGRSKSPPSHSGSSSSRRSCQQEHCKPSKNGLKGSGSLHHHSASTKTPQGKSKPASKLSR

Row | SMILES | permeability [3] | Selectivity Index [6] | IC50 (Tau-tubulin kinase 1 [7]) [µM] | IC50 (Tau-tubulin kinase 2 [8]) [µM] | also measured
1 | CC[C@@](C)(O)C#Cc1cc2c(ccn2-c2cc(OC)nc(N)n2)cn1 |  |  |  |  | IC50 (Tau-tubulin kinase 2 [1]): 0.0027 µM; IC50 (Tau-tubulin kinase 1 [2]): 0.0016 µM
2 | Nc1nc(Nc2ccc(Oc3ccc(Cl)cc3)cc2)c2cc[nH]c2n1 | Permeable |  |  |  | 
3 | O=C(c1ccc(Nc2ncnc3[nH]ccc23)cc1)c1ccc(Cl)c(Cl)c1 |  |  |  |  | inhibition (Tau-tubulin kinase 1 [4]): 9%
4 | O=C(c1ccccc1)c1ccc(Nc2ncnc3[nH]ccc23)cc1 | Permeable |  |  |  | Activity (SH-SY5Y [5]): Active
5 | CC(C)Oc1ccc(Nc2ncnc3[nH]ccc23)cc1 | Permeable | 0.17 | 1.5 | 8.4 | Activity (SH-SY5Y [5]): Active
6 | c1cc2c(c(Nc3ncnc4[nH]ccc34)c1)CCCC2 |  |  |  |  | inhibition (Tau-tubulin kinase 1 [4]): 23%; inhibition (Tau-tubulin kinase 2 [9]): 10%
7 | c1ccc(Oc2ccc(Nc3ncnc4[nH]ccc34)cc2)cc1 | Permeable |  |  |  | 
8 | CN(C)CCCN1c2ccccc2Sc2ccccc21 [PROMAZINE] | Permeable |  |  |  | 
9 | O=C(c1ccc(F)cc1)c1ccc(Nc2ncnc3[nH]ccc23)cc1 | Permeable |  |  |  | 
10 | c1ccc(Nc2ncnc3sccc23)cc1 |  |  |  |  | inhibition (Tau-tubulin kinase 1 [4]): 17%
11 | Cc1ccc(Cn2cc(COc3ccc(Nc4ncnc5[nH]ccc45)cc3)nn2)cc1 | Impermeable | 0.57 | 0.99 | 1.75 | 
12 | Clc1ccc(Nc2ncnc3[nH]ncc23)cc1 |  |  |  |  | inhibition (Tau-tubulin kinase 1 [4]): 8%; inhibition (Tau-tubulin kinase 2 [9]): 1%
13 | c1ccc(Nc2ncnc3[nH]ccc23)cc1 | Permeable | 0.47 | 0.79 | 1.68 | 
14 | Cc1cccc(Oc2ccc(Nc3ncnc4[nH]ccc34)cc2)c1 | Permeable |  |  |  | 
15 | c1nc(Nc2ccc(N3CCOCC3)cc2)c2cn[nH]c2n1 |  |  |  |  | inhibition (Tau-tubulin kinase 1 [4]): 25%; inhibition (Tau-tubulin kinase 2 [9]): 12%
16 | Cn1c(=O)c2c(ncn2C)n(C)c1=O [CAFFEINE] | Permeable |  |  |  | 
17 | c1ccc(COc2ccc(Nc3ncnc4[nH]ccc34)cc2)cc1 | Permeable |  |  |  | 
18 | Clc1ccccc1Cn1cc(COc2ccc(Nc3ncnc4[nH]ccc34)cc2)nn1 | Impermeable | 0.13 | 0.36 | 2.75 | 
19 | O=[N+]([O-])c1ccc(Oc2ccc(Nc3ncnc4[nH]ccc34)cc2)cc1 | Permeable |  |  |  | 
20 | COc1ccc(Oc2ccc(Nc3ncnc4[nH]ccc34)cc2)cc1 | Permeable |  |  |  | 
21 | Oc1ccc(Nc2ncnc3[nH]ncc23)cc1 |  |  |  |  | inhibition (Tau-tubulin kinase 1 [4]): 3%; inhibition (Tau-tubulin kinase 2 [9]): 1%
22 | Oc1cccc(Nc2ncnc3[nH]ccc23)c1 |  | 0.9 | 6.1 | 6.7 | 

Row | SMILES | permeability [3] | Selectivity Index [6] | IC50 (Tau-tubulin kinase 1 [7]) [µM] | IC50 (Tau-tubulin kinase 2 [8]) [µM] | also measured
23 | Clc1cccc(Cn2cc(COc3ccc(Nc4ncnc5[nH]ccc45)cc3)nn2)c1 | Impermeable | 0.24 | 0.48 | 2.03 | 
24 | Clc1ccc(Nc2ncnc3sccc23)cc1 |  |  |  |  | inhibition (Tau-tubulin kinase 1 [4]): 20%
25 | CCn1cc(C(=O)O)c(=O)c2cc(F)c(N3CCNCC3)nc21 [ENOXACIN] | Permeable |  |  |  | 
26 | c1cc(Nc2ncnc3[nH]ccc23)c2c(c1)OCO2 | Permeable | 0.21 | 1.58 | 7.58 | Activity (SH-SY5Y [5]): Active
27 | Clc1ccccc1Nc1ncnc2[nH]ccc12 |  | 0.51 | 21.8 | 42.1 | 
28 | Cc1ccc(Oc2ccc(Nc3ncnc4[nH]ccc34)cc2)cc1 | Permeable |  |  |  | Activity (SH-SY5Y [10]): Active; Activity (SH-SY5Y [11]): Active; Activity (SH-SY5Y [5]): Active
29 | CN1C(C(=O)Nc2ccccn2)=C(O)c2ccccc2S1(=O)=O [PIROXICAM] | Permeable |  |  |  | 
30 | Clc1cccc(Nc2ncnc3[nH]ccc23)c1 |  | 1.09 | 15.2 | 13.9 | 
31 | COc1cccc(Oc2ccc(Nc3ncnc4[nH]ccc34)cc2)c1 | Permeable |  |  |  | Activity (SH-SY5Y [5]): Active
32 | Oc1ccc(CNc2ncnc3[nH]ccc23)cc1 |  |  |  |  | inhibition (Tau-tubulin kinase 1 [4]): 23%; inhibition (Tau-tubulin kinase 2 [9]): 10%
33 | c1ccc(-n2cc(COc3ccc(Nc4ncnc5[nH]ccc45)cc3)nn2)cc1 |  |  |  |  | inhibition (Tau-tubulin kinase 1 [4]): 29%; inhibition (Tau-tubulin kinase 2 [9]): 1%
34 | Clc1cccc(Oc2ccc(Nc3ncnc4[nH]ccc34)cc2)c1 | Permeable |  |  |  | inhibition (Tau-tubulin kinase 2 [9]): 1%; Activity (SH-SY5Y [10]): Active; Activity (SH-SY5Y [11]): Active; Activity (SH-SY5Y [5]): Active; Activity (Tau-tubulin kinase 1 [12]): Active; Activity (Tau-tubulin kinase 1 [13]): Active; Activity (Tau-tubulin kinase 1 [14]): Active
35 | CNCCCN1c2ccccc2CCc2ccccc21 [DESIPRAMINE] | Permeable |  |  |  | 
36 | CC1(N)CCN(Cc2ccn3ncnc(Nc4cc(O)cc(Br)c4)c23)CC1 |  |  |  |  | IC50 (Tau-tubulin kinase 2 [1]): 0.17 µM
37 | COc1ccc(Nc2ncnc3[nH]ccc23)cc1 | Impermeable | 0.39 | 0.52 | 1.32 | 
38 | Clc1ccc(CCNc2ncnc3[nH]ccc23)cc1 |  |  | 18.2 | 86 | 
39 | Clc1ccc(Oc2ccc(Nc3ncnc4[nH]ccc34)cc2)cc1Cl | Permeable | 0.4 | 2.3 | 5.72 | 
40 | Oc1ccccc1Nc1ncnc2[nH]ccc12 |  |  |  |  | inhibition (Tau-tubulin kinase 1 [4]): 14%; inhibition (Tau-tubulin kinase 2 [9]): 1%
41 | Clc1ccc(CNc2ncnc3[nH]ccc23)cc1 |  |  |  |  | inhibition (Tau-tubulin kinase 1 [4]): 32%; inhibition (Tau-tubulin kinase 2 [9]): 10%
42 | c1nc(Nc2ccc(N3CCOCC3)cc2)c2cc[nH]c2n1 |  | 0.3 | 4.9 | 15.7 | 
43 | c1ccc(CCn2cc(COc3ccc(Nc4ncnc5[nH]ccc45)cc3)nn2)cc1 | Impermeable | 0.15 | 0.39 | 2.61 | 
44 | c1cc(Nc2ncnc3[nH]ccc23)cc(N2CCOCC2)c1 |  | 0.82 | 4.7 | 5.7 | 

Row | SMILES | permeability [3] | Selectivity Index [6] | IC50 (Tau-tubulin kinase 1 [7]) [µM] | IC50 (Tau-tubulin kinase 2 [8]) [µM] | also measured
45 | Fc1ccc(Oc2ccc(Nc3ncnc4[nH]ccc34)cc2)cc1 | Permeable | 0.25 |  |  | 
46 | CC(=O)c1ccc(Nc2ncnc3[nH]ccc23)cc1 |  | 0.46 | 4.3 | 9.3 | 
47 | FC(F)(F)Oc1ccc(Nc2ncnc3[nH]ccc23)cc1 | Impermeable | 0.11 | 1 | 8.8 | 
48 | COC(=O)c1cc(Nc2ncnc3[nH]ccc23)ccc1Br |  |  | 2.2 | 4.2 | 
49 | Oc1cccc(Nc2ncnc3[nH]ncc23)c1 |  | 0.22 | 9.15 |  | inhibition (Tau-tubulin kinase 2 [9]): 13%
50 | FC(F)(F)c1ccc(Oc2ccc(Nc3ncnc4[nH]ccc34)cc2)cc1 |  |  |  |  | inhibition (Tau-tubulin kinase 2 [9]): 5%
51 | Clc1ccc(Nc2ncnc3[nH]ccc23)cc1 |  | 0.15 | 3.2 | 20.3 | 
52 | Nc1nc(Nc2ccc(Oc3cccc(Cl)c3)cc2)c2cc[nH]c2n1 | Permeable | 0.12 |  |  | 
53 | c1cncc(Oc2ccc(Nc3ncnc4[nH]ccc34)cc2)c1 | Impermeable | 0.12 | 0.75 | 6.05 | 
54 | Nc1ccc(Sc2ccc(Nc3ncnc4[nH]ccc34)cc2)cc1 | Permeable |  |  |  | 
55 | Clc1ccccc1Oc1ccc(Nc2ncnc3[nH]ccc23)cc1 | Permeable |  |  |  | 
56 | Nc1nc(Nc2ccc(Oc3cccc(C(F)(F)F)c3)cc2)c2cc[nH]c2n1 | Permeable | 0.33 |  |  | 
57 | FC(F)(F)c1cccc(Oc2ccc(Nc3ncnc4[nH]ccc34)cc2)c1 |  |  |  |  | inhibition (Tau-tubulin kinase 2 [9]): 1%
58 | CCOc1ccc(Nc2ncnc3[nH]ccc23)cc1 | Impermeable | 0.16 | 2.3 | 13.7 | Activity (SH-SY5Y [5]): Active
59 | c1nc(NC2CCCCC2)c2cc[nH]c2n1 |  |  |  |  | inhibition (Tau-tubulin kinase 1 [4]): 3%; inhibition (Tau-tubulin kinase 2 [9]): 15%
60 | Oc1ccc(CCNc2ncnc3[nH]ccc23)cc1 |  | 0.33 | 12.8 | 37.7 | 
61 | Clc1ccc(Cn2cc(COc3ccc(Nc4ncnc5[nH]ccc45)cc3)nn2)cc1 | Impermeable | 0.21 | 0.61 | 2.87 | 
62 | Nc1nc(Nc2ccc(Oc3ccc(C(F)(F)F)cc3)cc2)c2cc[nH]c2n1 | Permeable | 0.13 | 0.38 |  | Activity (SH-SY5Y [5]): Active
63 | Brc1ccc(Oc2ccc(Nc3ncnc4[nH]ccc34)cc2)cc1 | Permeable |  |  |  | 
64 | Oc1ccc(Nc2ncnc3[nH]ccc23)cc1 |  | 0.45 | 3 | 7.4 | 

— ChEMBL document CHEMBL5154682, “TDP-43 Modulation by Tau-Tubulin Kinase 1 Inhibitors: A New Avenue for Future Amyotrophic Lateral Sclerosis Therapy” (J Med Chem, 2022)
